The source of these data is US5614555A, “Amidinophenol derivatives” (Ono Pharmaceutical Co., Ltd., priority 1992, dated 1997).

Each structure is given as a SMILES string. Where a name gives a salt, the structure may show the parent alone.

The target in experiment [1] is T1, trypsin (derived from bovine pancreas) (Bos taurus, UniProt P00760).
T1 construct: from tissue; host or cells: bovine pancreas
T1 sequence (P00760 24-246): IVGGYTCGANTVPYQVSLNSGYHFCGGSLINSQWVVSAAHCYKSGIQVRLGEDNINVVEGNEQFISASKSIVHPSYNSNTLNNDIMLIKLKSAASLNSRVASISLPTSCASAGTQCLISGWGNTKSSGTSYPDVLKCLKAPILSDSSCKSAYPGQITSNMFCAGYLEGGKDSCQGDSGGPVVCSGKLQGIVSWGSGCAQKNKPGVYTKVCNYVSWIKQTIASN
Put plainly: Inhibitory activity on trypsin. The experiment is classed as biochemical. As to conditions: pH8.0, preincubated one minute at 30° C., BAPNA substrate, 30 min, absorbance at 405 nm. How it is done: To a mixture of a 0.2M HEPES.sodium hydroxide buffer solution (pH8.0, 100 μl ) and distilled water (640 μl), were added a test compound in various concentration or water (10 μl), and a solution of 80 mU/ml trypsin (derived from bovine pancreas) (50 μl) and then the mixture was preincubated for one minute at 30° C. To the solution thus obtained was added 2.5 mM BAPNA (200 μl) and the mixture was incubated for 30 min. The absorbance at 405 nm was measured. Percentage (%) of the absorbance in the presence of a test compound was calculated when the absorbance in the absence thereof was regarded as 100%, and therefrom IC50 value was calculated.
HEPES represents 4-(2-hydroxyethyl)-1-piperazineethanesulfonic acid, and
BAPNA represents a-N-benzoyl-DL-arginine-p-nitroanilide hydrochloride.

Experiment [2] addresses T2, PLA2 (derived from hog pancreas) (Sus scrofa, UniProt P00592).
T2 construct: from tissue; host or cells: hog pancreas
Briefly: Inhibitory activity on PLA2. The experiment is classed as biochemical. To be noted: pH7.5, 10PY-PC substrate, fluorescence Ex=345 nm, Em=396 nm. As to the method: A reaction solution including 50 mM tris-HCl buffer (pH7.5, 874 μl; containing 100 mM sodium chloride, 1 mM EDTA), 1M calcium chloride (6 μl), 1% bovine serum albumin (10 μl) and 2.5 mM 10PY-PC (10 μl), was prepared. To the solution were added a test compound in various concentration or water (50 μl), and a solution of 10 mU/ml PLA2 (derived from hog pancreas)(50 μl). The appearance of fluorescence was measured (Ex=345 nm, Em=396 nm). Percentage (%) of the strength of fluorescence in the presence of a test compound was calculated when the strength of that in the absence thereof was regarded as 100%, and therefrom IC50 value was calculated.
10PY-PC represents 3'-palmitoyl-2-(1 -pyrenedecanoyl)-L-α-phosphatidycholine, […]

In experiment [3] the test system is PLA2. As to conditions: Japan. J. Pharmacol., 52, 23-34, 1990; cited from earlier work.

T2 sequence (P00592 23-146): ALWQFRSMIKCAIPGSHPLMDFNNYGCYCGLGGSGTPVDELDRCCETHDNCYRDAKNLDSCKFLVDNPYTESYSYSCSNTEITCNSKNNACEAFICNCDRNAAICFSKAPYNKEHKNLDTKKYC

For the compound `CCOC(=O)CC[C@H](NC(=O)/C(C)=C/c1ccc(C(=O)Oc2ccc(C(=N)N)cc2)cc1)C(=O)OCC` [1(d), p-(p-amidino-phenoxycarbonyl)-α-methylcinnamicacid N-[1-(S),3-bis-(ethoxycarbonyl)]-propylamidehydrochloride], the figures for the IC50 in experiment [1] and in experiment [2] were 130 nM and 63000 nM, respectively. On the same counts, the results for `CCOC(=O)CN(C(=O)/C(C)=C/c1ccc(C(=O)Oc2ccc(C(=N)N)cc2)cc1)c1ccc(F)cc1` [1(g), p-(p-amidino-phenoxycarbonyl)-α-methylcinnamicacid N-(p-fluoro-phenyl)-N-ethoxy-carbonylmethyl-amidemethanesulfonate] are 140 nM and 5300 nM. The corresponding values for `C=CCN(CC(=O)OCC)C(=O)/C(C)=C/c1ccc(C(=O)Oc2ccc(C(=N)N)cc2)cc1` [1(i), p-(p-amidino-phenoxycarbonyl)-α-methylcinnamicacid N-allyl-N-ethoxycarbonylmethylamideacetate] are 130 nM and 28000 nM.

Turning to `CCOC(=O)CN(C(=O)/C=C(\C)c1ccc(C(=O)Oc2ccc(C(=N)N)cc2)cc1)c1ccccc1` [1(k), p-(p-amidino-phenoxycarbonyl)-β-methylcinnamicacid N-phenyl-N-ethoxycarbonyl-methylamidehydrochloride], the IC50 in experiment [1] came to 220 nM; in experiment [2], 3100 nM. In the case of `CCOC(=O)CN(C(=O)c1ccc(C(=O)Oc2ccc(C(=N)N)cc2C(=O)OC)cc1)c1ccccc1` [1(p), p-(p-amidino-o-methoxycarbonyl-phenoxycarbonyl)-benzoic acid N-phenyl-N-ethoxy-carbonylmethyl-amide acetate], the half-maximal inhibitory concentration (IC50) in experiment [1] turned out to be 150 nM.

Regarding `N=C(N)c1ccc(OC(=O)c2ccc(C(=O)N3CCN(Cc4ccccc4)CC3)cc2)cc1` [1(t), p-(p-amidino-phenoxycarbonyl)-benzoic acid N'-phenylmethyl-piperazinylamidedihydrochloride], the IC50 in experiment [1] was found to be 220 nM; in experiment [2], 24000 nM. On the same counts, the results for `N=C(N)c1ccc(OC(=O)c2ccc(C(=O)N3CCC[C@@H]3C(=O)OCc3ccccc3)cc2)cc1` [2(f), p-(p-amidinophenoxycarbonyl)benzoic acid-N-(2-(R)-benzyloxycarbonyl)pyrrolidinylamideacetic acid] are 140 nM and 32000 nM. On the same counts, the results for `CCOC(=O)CN(Cc1ccccc1)C(=O)/C(C)=C/c1ccc(C(=O)Oc2ccc(C(=N)N)cc2)cc1` [Example 1, p-(p-Amidinophenoxycarbonyl)-α-methylcinnamic acid N-ethoxycarbonylmethyl-N-phenylmethylamide hydrochloride] are 140 nM and 4800 nM. The corresponding values for `CCOC(=O)CN(C(=O)/C=C/c1ccc(C(=O)Oc2ccc(C(=N)N)cc2)cc1)c1ccccc1` [Example 2(a), p-(p-amidinophenoxycarbonyl)cinnamic acid-N-phenyl-N-ethoxycarbonylmethyl amidehydrochloride] are 140 nM and 15000 nM. As to `C=CCN(CC(=O)O)C(=O)/C(C)=C/c1ccc(C(=O)Oc2ccc(C(=N)N)cc2)cc1` [Example 4, p-(p-Amidinophenoxycarbonyl)-α-methylcinnamic acid N-carboxymethyl-N-allylamide methanesulfonate], inhibition in experiment [1] was half-maximal at 100 nM (IC50).

As to `CN(C)C(=O)COC(=O)Cc1ccc(OC(=O)c2ccc(NC(=N)N)cc2)cc1` [camostat mesylate], in experiment [3], the “inhibitory activity on PLA2 (in words)” value is “having an inhibitory activity on PLA2”. For `N=C(N)Nc1ccc(C(=O)Oc2ccc3cc(C(=N)N)ccc3c2)cc1` [nafamostat mesilate], in experiment [3], the “inhibitory activity on PLA2 (in words)” value is recorded as “having an inhibitory activity on PLA2”.
